Legend:
Format in all cases: cell-based
[1] = test system: cells negative for RET oncogenes; assay: Growth inhibition, cells negative for RET oncogenes (summary); conditions: doses of ≤100 nM
Protocol: Finally, NPA101.3 featured efficacy already at 1 mg/kg/day in RET-driven tumors in nude mice. […] Therefore, though in a therapeutic setting toxicity may be increased by hitting multiple targets, it is feasible that the activity of the NPA101.3 against RET-driven tumors may take advantage of a synergistic combination of cell autonomous (on tumor cell growth mediated by RET inhibition) and non-cell autonomous (on blood vessel formation mediated by VEGFR2 inhibition) effects, potentiating its effect and reducing the chances of resistance development. Several TKIs with anti-RET activity are available, and some are already registered for the treatment of different types of thyroid cancers. […]
Nthy-ory-3-1 (10000 per well), TPC-1 (10000 per well), MZ-CRC-1 (100000 per well), TT (200000 per well), Lc-2/ad (100000 per well), BCPAP (10000 per well), 8505-C (10000 per well), PC-9 (10000 per well), A549 (10000 per well), CALU-1 (10000 per well), NIH3T3 RET/C634Y (10000 per well), and NIH3T3 HRAS/G12V (10000 per well) were seeded in six-well tissue culture plates. […] Cells were counted every day (Ba/F3), every 2 days (fibroblasts), or every 2–3 days (human cell lines). […] IC50 doses were calculated through a curve fitting analysis from last day of growth curves using the PRISM software program (Graphpad Software Inc.).

[2] = test system: Lc-2/ad; assay: Cell growth curves, human cells; conditions: LADC, CCDC6-RET, read-out: IC50 (95% CI), growth inhibition
Protocol: (§1) The IC50 dose for all human RET-negative cells was >100.0 nM, confirming compound selectivity (Figure S8 and Table S4).
(§2) Nthy-ory-3-1 (10000 per well), TPC-1 (10000 per well), MZ-CRC-1 (100000 per well), TT (200000 per well), Lc-2/ad (100000 per well), BCPAP (10000 per well), 8505-C (10000 per well), PC-9 (10000 per well), A549 (10000 per well), CALU-1 (10000 per well), NIH3T3 RET/C634Y (10000 per well), and NIH3T3 HRAS/G12V (10000 per well) were seeded in six-well tissue culture plates. Cells were kept in 2% (TPC-1), 5% (Nthy-ori-3-1), or 10% (BCPAP, 8505-C, CALU-1, A549, PC-9, TT, MZ-CRC-1, and Lc-2/ad) fetal calf serum or in 2% (NIH3T3 RET/C634Y and HRAS/G12V) calf serum. Ba/F3 cells (200000 per well in 2 mL) were seeded in six-well tissue culture plates and kept in 10% fetal calf serum. The day after plating, different concentrations of the drug or vehicle were added to the medium and changed every 2–3 days. Cells were counted every day (Ba/F3), every 2 days (fibroblasts), or every 2–3 days (human cell lines). To compare cell growth, we performed an unpaired Student’s t test using the Instat software program (Graphpad Software Inc.). All P values were two-sided, and differences were considered to be statistically significant at P < 0.02. IC50 doses were calculated through a curve fitting analysis from last day of growth curves using the PRISM software program (Graphpad Software Inc.).
(§3) Supplementary Table S4: NPA101.3 growth inhibitory effect on human cells.
(§4) *MTC (medullary thyoroid carcinoma); PTC (papillary thyroid carcinoma); ATC
(§5) (anaplastic thyroid carcinoma); LADC (lung adenocarcinoma)

[3] = test system: MZ-CRC-1; assay: Cell growth curves, human cells; conditions: MZ-CRC-1, MTC, RET M918T, read-out: IC50 (95% CI), growth inhibition
Protocol: as §1, §2, §3, §4, §5

[4] = test system: TT; assay: Cell growth curves, human cells; conditions: MTC, RET C634W, read-out: IC50 (95% CI), growth inhibition
Protocol: as §1, §2, §3, §4, §5

[5] = test system: NIH3T3 HRAS/G12V cells; assay: Phosphorylation and signalling Western blot in NIH3T3 HRAS/G12V cells; conditions: up to a dose of 100.0 nM
Protocol: Protein lysates were prepared according to standard procedures. Briefly, cells were lysed in a buffer containing 50 mM N-2-hydroxyethylpiperazine-N′-2-ethanesulfonic acid (HEPES; pH 7.5), 1% (v/v) Triton X-100, 150 mM NaCl, 5 mM EGTA, 50 mM NaF, 20 mM sodium pyrophosphate, 1 mM sodium vanadate, 2 mM phenylmethanesulfonyl fluoride (PMSF), and 1 μg/mL aprotinin. Lysates were clarified by centrifugation at 10000g for 15 min. […] Immune complexes were detected with the enhanced chemiluminescence kit (Amersham Pharmacia Biotech, Little Chalfont, U.K.). Anti-phospho-SHC (#Y317), which recognizes SHC protein when phosphorylated on Y317, was from Upstate Biotechnology Inc. (Lake Placid, NY). Anti-SHC (H-108) was from Santa Cruz Biotechnology (Santa Cruz, CA). Anti-MAPK (9101) and anti-phospho-MAPK (9102), specific for p42/44MAPK (ERK1/2) phosphorylated on Thr202/Tyr204, antibodies were from Cell Signaling Technologies (Danvers, MA). Anti-phospho-VEGFR2/KDR (2478), specific for VEGFR2/KDR phosphorylated on Tyr1175, and anti-VEGFR2/KDR (2479) were from Cell Signaling Technologies. Anti-phospho-p70S6K (9234), specific for p70S6K phosphorylated on Thr389, and anti-p70S6K (2708) were from Cell Signaling Technologies. […]

CC(C)(C)c1cc(NC(=O)Cc2ccc(-n3cnc4cc(-c5ccc(S(C)(=O)=O)cc5)ccc43)cc2)no1 [NPA101.3]
growth effect in cells negative for RET oncogenes [1]: no detectable effect
IC50 [2]: 3.6 nM
IC50 [3]: 2.21 nM
IC50 [4]: 2.19 nM
effect on phosphorylation/signalling [5]: virtually no effect

From publication PMC7901654, “Bioisosteric Discovery of NPA101.3, a Second-Generation RET/VEGFR2 Inhibitor Optimized for Single-Agent Polypharmacology” (Journal of Medicinal Chemistry, 2020)
